Assay results published in ChEMBL document CHEMBL4507272 (2021).
pKi: −log10 of the molar value.

Columns and labels:
[1] = target: T1, Beta-1 adrenergic receptor (Homo sapiens, UniProt P08588); test: GPCRScan assay: inhibition of Beta1; set-up: radioligand conc. used [nm] 0.1 – 0.2, parental cells CHO Flp-In
Target sequence in this assay (P08588 whole entry): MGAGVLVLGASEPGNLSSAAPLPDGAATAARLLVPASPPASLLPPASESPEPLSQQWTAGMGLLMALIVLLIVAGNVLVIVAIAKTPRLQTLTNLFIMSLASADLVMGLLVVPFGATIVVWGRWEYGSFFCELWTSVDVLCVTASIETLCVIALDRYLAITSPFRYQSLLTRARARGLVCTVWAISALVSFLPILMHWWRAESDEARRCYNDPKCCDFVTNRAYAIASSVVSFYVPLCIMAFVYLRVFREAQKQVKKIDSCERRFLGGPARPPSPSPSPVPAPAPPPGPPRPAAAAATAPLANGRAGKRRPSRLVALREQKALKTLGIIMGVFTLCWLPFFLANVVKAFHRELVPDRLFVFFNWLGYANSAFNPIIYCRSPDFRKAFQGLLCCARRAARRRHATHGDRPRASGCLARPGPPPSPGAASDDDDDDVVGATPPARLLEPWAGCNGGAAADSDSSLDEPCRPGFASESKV

[2] = test system: Tyrosine-protein kinase ABL1 (Homo sapiens), P00519 [M351T]; conditions: Compound concentration 1000.0 nM
[3] = target: Atypical kinase COQ8B, mitochondrial (Homo sapiens) (UniProt Q96D53); conditions: Compound concentration 1000.0 nM
[4] = target: RAC-beta serine/threonine-protein kinase (Homo sapiens) (UniProt P31751); conditions: Compound concentration 1000.0 nM
[5] = test system: ALK tyrosine kinase receptor (Homo sapiens), Q9UM73 [L1196M]; conditions: Compound concentration 1000.0 nM
[6] = target: 5'-AMP-activated protein kinase catalytic subunit alpha-1 (Homo sapiens) (UniProt Q13131); conditions: Compound concentration 1000.0 nM
[7] = target: Serine/threonine-protein kinase BRSK2 (Homo sapiens) (UniProt Q8IWQ3); conditions: Compound concentration 1000.0 nM
[8] = target: Calcium/calmodulin-dependent protein kinase type 1G (Homo sapiens) (UniProt Q96NX5); conditions: Compound concentration 1000.0 nM
[9] = target: Calcium/calmodulin-dependent protein kinase type II subunit delta (Homo sapiens) (UniProt Q13557); conditions: Compound concentration 1000.0 nM
[10] = target: Casein kinase I isoform alpha-like (Homo sapiens) (UniProt Q8N752); conditions: Compound concentration 1000.0 nM
[11] = target: Death-associated protein kinase 2 (Homo sapiens) (UniProt Q9UIK4); conditions: Compound concentration 1000.0 nM
[12] = target: Serine/threonine-protein kinase DCLK2 (Homo sapiens) (UniProt Q8N568); conditions: Compound concentration 1000.0 nM
[13] = test system: Epidermal growth factor receptor (Homo sapiens), P00533 [L861Q]; conditions: Compound concentration 1000.0 nM
[14] = target: Ephrin type-A receptor 6 (Homo sapiens) (UniProt Q9UF33); conditions: Compound concentration 1000.0 nM
[15] = target: Ephrin type-A receptor 7 (Homo sapiens) (UniProt Q15375); conditions: Compound concentration 1000.0 nM
[16] = target: Ephrin type-A receptor 8 (Homo sapiens) (UniProt P29322); conditions: Compound concentration 1000.0 nM
[17] = target: Mitogen-activated protein kinase 3 (Homo sapiens) (UniProt P27361); conditions: Compound concentration 1000.0 nM
[18] = target: Rhodopsin kinase GRK1 (Homo sapiens) (UniProt Q15835); conditions: Compound concentration 1000.0 nM
[19] = target: Homeodomain-interacting protein kinase 3 (Homo sapiens) (UniProt Q9H422); conditions: Compound concentration 1000.0 nM
[20] = target: Mitogen-activated protein kinase kinase kinase kinase 1 (Homo sapiens) (UniProt Q92918); conditions: Compound concentration 1000.0 nM
[21] = target: Mitogen-activated protein kinase 8 (Homo sapiens) (UniProt P45983); conditions: Compound concentration 1000.0 nM
[22] = test system: Mast/stem cell growth factor receptor Kit (Homo sapiens), P10721 [D816H]; conditions: Compound concentration 1000.0 nM
[23] = target: Serine/threonine-protein kinase LATS1 (Homo sapiens) (UniProt O95835); conditions: Compound concentration 1000.0 nM
[24] = target: LIM domain kinase 1 (Homo sapiens) (UniProt P53667); conditions: Compound concentration 1000.0 nM
[25] = target: MAP kinase-activated protein kinase 5 (Homo sapiens) (UniProt Q8IW41); conditions: Compound concentration 1000.0 nM
[26] = target: Microtubule-associated serine/threonine-protein kinase 1 (Homo sapiens) (UniProt Q9Y2H9); conditions: Compound concentration 1000.0 nM
[27] = target: MAP kinase-interacting serine/threonine-protein kinase 1 (Homo sapiens) (UniProt Q9BUB5); conditions: Compound concentration 1000.0 nM
[28] = target: Myosin-IIIa (Homo sapiens) (UniProt Q8NEV4); conditions: Compound concentration 1000.0 nM
[29] = target: Serine/threonine-protein kinase PAK 2 (Homo sapiens) (UniProt Q13177); conditions: Compound concentration 1000.0 nM
[30] = target: Calcium-dependent protein kinase 1 (Plasmodium falciparum) (UniProt P62344); conditions: Compound concentration 1000.0 nM
[31] = target: Phosphatidylinositol 4-phosphate 5-kinase type-1 alpha (Homo sapiens) (UniProt Q99755); conditions: Compound concentration 1000.0 nM
[32] = target: cAMP-dependent protein kinase catalytic subunit PRKX (Homo sapiens) (UniProt P51817); conditions: Compound concentration 1000.0 nM
[33] = target: SNF-related serine/threonine-protein kinase (Homo sapiens) (UniProt Q9NRH2); conditions: Compound concentration 1000.0 nM
[34] = target: NT-3 growth factor receptor (Homo sapiens) (UniProt Q16288); conditions: Compound concentration 1000.0 nM
[35] = target: Non-receptor tyrosine-protein kinase TYK2 (Homo sapiens) (UniProt P29597); conditions: Compound concentration 1000.0 nM
[36] = target: Serine/threonine-protein kinase ULK1 (Homo sapiens) (UniProt O75385); conditions: Compound concentration 1000.0 nM
[37] = target: Serine/threonine-protein kinase VRK2 (Homo sapiens) (UniProt Q86Y07); conditions: Compound concentration 1000.0 nM
[38] = target: Serine/threonine-protein kinase 32B (Homo sapiens) (UniProt Q9NY57); conditions: Compound concentration 1000.0 nM
[39] = target: T2, GABA-A receptor; anion channel (Rattus norvegicus) (UniProt O09028+P15431+P18506+P18508+P19969+P20236+P23574+P23576+P28471+P28473+P30191+P62813+P63079+P63138+Q91ZM7+Q9ES14); conditions: Compound concentration 10.0 uM
[40] = target: T1, Beta-1 adrenergic receptor; conditions: Compound concentration 10.0 uM
[41] = target: T2, GABA-A receptor; anion channel (Rattus norvegicus); conditions: Compound concentration 10.0 uM; remark: listed apart in the source
[42] = target: Sigma intracellular receptor 2 (Homo sapiens) (UniProt Q5BJF2); conditions: Compound concentration 10.0 uM

Death-associated protein kinase 2 (Homo sapiens), sequence (Q9UIK4 whole entry, looked up): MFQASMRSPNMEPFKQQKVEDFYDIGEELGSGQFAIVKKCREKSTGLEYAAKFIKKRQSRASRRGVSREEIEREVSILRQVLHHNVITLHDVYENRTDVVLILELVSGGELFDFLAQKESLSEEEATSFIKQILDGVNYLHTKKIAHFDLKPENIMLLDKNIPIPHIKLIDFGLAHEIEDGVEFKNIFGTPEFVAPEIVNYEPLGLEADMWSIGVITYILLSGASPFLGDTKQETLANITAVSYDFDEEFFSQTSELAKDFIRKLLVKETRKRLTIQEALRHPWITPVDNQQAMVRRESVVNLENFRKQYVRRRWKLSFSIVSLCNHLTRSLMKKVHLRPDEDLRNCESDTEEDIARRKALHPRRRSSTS
Calcium-dependent protein kinase 1 (Plasmodium falciparum), sequence (P62344 2-524 limits assumed): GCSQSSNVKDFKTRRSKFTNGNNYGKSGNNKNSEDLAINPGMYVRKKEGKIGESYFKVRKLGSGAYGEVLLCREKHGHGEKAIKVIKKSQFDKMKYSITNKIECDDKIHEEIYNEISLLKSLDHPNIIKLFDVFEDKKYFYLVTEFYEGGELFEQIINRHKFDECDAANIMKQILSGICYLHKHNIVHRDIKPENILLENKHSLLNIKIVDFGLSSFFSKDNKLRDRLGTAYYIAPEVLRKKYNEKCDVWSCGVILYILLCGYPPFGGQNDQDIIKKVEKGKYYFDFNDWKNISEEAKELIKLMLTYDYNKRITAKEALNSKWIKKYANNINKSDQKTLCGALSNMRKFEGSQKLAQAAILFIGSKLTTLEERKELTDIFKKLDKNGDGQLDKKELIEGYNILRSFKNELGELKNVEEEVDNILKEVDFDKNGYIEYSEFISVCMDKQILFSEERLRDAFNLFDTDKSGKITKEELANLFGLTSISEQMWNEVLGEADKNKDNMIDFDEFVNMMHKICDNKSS
MAP kinase-interacting serine/threonine-protein kinase 1 (Homo sapiens), sequence (Q9BUB5 whole entry, looked up): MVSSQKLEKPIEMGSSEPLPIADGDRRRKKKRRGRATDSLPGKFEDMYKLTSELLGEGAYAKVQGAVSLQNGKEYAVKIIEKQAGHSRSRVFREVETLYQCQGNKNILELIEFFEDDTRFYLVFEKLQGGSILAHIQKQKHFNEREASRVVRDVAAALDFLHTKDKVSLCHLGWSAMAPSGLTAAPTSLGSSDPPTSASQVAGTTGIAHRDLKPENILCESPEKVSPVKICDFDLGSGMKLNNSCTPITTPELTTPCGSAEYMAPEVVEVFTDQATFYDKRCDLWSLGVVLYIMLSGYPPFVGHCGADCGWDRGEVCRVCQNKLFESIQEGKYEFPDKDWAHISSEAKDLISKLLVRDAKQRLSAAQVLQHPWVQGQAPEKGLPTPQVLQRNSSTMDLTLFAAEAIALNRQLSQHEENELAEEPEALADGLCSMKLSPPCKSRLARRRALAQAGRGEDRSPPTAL
Serine/threonine-protein kinase PAK 2 (Homo sapiens), sequence (Q13177 whole entry): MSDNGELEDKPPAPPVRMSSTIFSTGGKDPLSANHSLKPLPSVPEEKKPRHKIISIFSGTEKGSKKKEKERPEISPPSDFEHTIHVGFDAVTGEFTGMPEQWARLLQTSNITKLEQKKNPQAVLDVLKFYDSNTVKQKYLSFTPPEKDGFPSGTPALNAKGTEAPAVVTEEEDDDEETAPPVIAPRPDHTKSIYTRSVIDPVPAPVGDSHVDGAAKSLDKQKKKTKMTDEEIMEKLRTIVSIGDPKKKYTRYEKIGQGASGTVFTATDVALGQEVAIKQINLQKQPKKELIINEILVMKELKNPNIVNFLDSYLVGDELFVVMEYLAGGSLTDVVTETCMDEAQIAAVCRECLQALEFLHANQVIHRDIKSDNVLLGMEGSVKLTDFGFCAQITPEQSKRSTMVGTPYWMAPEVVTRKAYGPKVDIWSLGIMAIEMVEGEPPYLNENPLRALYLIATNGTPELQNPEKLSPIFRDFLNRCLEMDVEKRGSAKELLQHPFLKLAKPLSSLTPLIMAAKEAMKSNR
Mitogen-activated protein kinase 8 (Homo sapiens), sequence (P45983 whole entry): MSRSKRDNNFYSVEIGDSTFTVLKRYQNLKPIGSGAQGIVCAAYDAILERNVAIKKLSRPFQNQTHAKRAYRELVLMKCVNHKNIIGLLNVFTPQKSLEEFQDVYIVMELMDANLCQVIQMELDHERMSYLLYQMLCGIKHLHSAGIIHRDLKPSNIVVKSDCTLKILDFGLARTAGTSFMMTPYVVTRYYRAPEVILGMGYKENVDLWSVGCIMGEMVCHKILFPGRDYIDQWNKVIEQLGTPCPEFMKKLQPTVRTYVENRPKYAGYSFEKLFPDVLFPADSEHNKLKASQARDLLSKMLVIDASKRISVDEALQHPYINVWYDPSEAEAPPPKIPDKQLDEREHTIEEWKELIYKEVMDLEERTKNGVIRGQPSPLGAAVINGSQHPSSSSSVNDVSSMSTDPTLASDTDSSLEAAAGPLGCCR
Casein kinase I isoform alpha-like (Homo sapiens), sequence (Q8N752 whole entry, canonical isoform): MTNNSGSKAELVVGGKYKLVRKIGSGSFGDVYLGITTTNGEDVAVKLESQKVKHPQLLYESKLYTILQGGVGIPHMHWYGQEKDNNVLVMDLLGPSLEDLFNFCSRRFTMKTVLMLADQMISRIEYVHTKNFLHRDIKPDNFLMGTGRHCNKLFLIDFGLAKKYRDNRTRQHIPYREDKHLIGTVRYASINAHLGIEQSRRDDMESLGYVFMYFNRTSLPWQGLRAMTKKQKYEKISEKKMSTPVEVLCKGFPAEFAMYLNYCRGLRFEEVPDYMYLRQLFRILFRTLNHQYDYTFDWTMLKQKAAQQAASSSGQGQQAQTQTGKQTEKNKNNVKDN
cAMP-dependent protein kinase catalytic subunit PRKX (Homo sapiens), sequence (P51817 whole entry): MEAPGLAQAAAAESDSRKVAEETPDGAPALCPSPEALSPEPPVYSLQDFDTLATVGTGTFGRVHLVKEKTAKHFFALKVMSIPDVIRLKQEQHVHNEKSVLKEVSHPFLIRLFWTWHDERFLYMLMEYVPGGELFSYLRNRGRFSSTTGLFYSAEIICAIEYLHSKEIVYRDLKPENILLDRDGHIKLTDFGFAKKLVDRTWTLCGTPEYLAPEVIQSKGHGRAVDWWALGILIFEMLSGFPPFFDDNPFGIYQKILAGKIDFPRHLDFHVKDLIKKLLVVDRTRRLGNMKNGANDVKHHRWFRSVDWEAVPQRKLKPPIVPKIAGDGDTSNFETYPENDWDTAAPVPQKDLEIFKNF
Rhodopsin kinase GRK1 (Homo sapiens), sequence (Q15835 whole entry): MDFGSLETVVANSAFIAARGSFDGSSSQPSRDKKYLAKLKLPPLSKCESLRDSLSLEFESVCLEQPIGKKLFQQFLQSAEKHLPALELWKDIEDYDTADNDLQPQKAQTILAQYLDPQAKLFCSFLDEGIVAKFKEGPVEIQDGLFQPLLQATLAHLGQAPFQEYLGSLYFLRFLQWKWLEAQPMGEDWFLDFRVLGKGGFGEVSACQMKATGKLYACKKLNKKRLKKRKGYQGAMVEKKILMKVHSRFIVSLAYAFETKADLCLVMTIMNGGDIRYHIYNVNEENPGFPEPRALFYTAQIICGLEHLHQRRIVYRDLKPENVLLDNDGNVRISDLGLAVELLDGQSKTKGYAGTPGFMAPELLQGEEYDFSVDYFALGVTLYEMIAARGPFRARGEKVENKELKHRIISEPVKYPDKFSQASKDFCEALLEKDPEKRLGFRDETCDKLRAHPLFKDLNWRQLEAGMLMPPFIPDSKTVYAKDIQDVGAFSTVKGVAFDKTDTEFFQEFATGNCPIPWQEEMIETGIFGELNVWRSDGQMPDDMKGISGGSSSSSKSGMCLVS
Serine/threonine-protein kinase VRK2 (Homo sapiens), sequence (Q86Y07 whole entry): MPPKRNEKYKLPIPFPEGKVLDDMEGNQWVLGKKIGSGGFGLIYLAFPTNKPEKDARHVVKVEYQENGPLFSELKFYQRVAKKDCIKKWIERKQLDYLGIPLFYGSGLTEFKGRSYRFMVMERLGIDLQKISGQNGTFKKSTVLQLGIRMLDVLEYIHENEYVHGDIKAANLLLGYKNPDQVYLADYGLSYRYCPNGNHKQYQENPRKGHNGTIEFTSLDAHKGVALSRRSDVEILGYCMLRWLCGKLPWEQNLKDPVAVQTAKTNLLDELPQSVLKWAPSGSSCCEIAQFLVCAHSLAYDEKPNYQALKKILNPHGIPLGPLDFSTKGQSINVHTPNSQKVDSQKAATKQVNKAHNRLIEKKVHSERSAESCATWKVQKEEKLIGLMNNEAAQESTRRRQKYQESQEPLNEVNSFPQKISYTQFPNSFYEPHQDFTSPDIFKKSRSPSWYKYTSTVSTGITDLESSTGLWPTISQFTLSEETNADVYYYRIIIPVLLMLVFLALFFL
Serine/threonine-protein kinase 32B (Homo sapiens), sequence (Q9NY57 whole entry): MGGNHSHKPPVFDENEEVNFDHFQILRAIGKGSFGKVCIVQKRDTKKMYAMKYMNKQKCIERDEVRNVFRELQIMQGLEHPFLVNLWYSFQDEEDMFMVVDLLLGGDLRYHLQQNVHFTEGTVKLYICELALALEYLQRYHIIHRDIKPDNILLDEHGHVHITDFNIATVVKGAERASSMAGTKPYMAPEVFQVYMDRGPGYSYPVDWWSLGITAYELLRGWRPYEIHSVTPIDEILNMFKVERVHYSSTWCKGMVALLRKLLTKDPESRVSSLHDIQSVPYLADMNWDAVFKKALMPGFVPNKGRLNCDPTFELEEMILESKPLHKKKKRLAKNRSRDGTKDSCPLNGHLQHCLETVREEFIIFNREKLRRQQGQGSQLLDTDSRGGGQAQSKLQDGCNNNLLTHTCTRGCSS

CC(=O)C1=C(C)N(c2cccc(C(F)(F)F)c2)C(=O)N[C@@H]1c1ccc(C#N)nc1 [BAY-678] was tested, and the pKi ([1]; read-out: Ki) was 5.26, the Ki ([1]; read-out: pKi (converted)) was 5.01 µM and the residual activity [2] was 100%. The residual activity [3] was 100%, the residual activity [4] was 100% and the residual activity [5] was 94.1%. It also gave a residual activity [6] of 85.4%, a residual activity [7] of 100% and a residual activity [8] of 100%. For the same compound, the residual activity [9] was 100%, the residual activity [10] was 100% and the residual activity [11] was 79.2%. For the same compound, the residual activity [12] was 88%, the residual activity [13] was 100% and the residual activity [14] was 94.5%. For the same compound, the residual activity [15] was 100%, the residual activity [16] was 100% and the residual activity [17] was 97.1%. It also gave a residual activity [18] of 99.2%, a residual activity [19] of 100% and a residual activity [20] of 100%. The residual activity [21] was 100%, the residual activity [22] was 100% and the residual activity [23] was 67.1%. It also gave a residual activity [24] of 70.2%, a residual activity [25] of 100% and a residual activity [26] of 96.9%. For the same compound, the residual activity [27] was 100%, the residual activity [28] was 85.1% and the residual activity [29] was 98.2%. It also gave a residual activity [30] of 94.8%, a residual activity [31] of 100% and a residual activity [32] of 100%. It also gave a residual activity [33] of 100%, a residual activity [34] of 100% and a residual activity [35] of 94.9%. For the same compound, the residual activity [36] was 100%, the residual activity [37] was 77.6% and the residual activity [38] was 100%. For the same compound, the inhibition [39] was 11.9%, the inhibition [40] was 60% and the inhibition [41] was 9.75%. The inhibition [42] was 35.9%.
